Laboratory results as given in PubChem BioAssay (NCI).
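Cells were grown in 96-well plates and exposed to each compound for 48 hours at five concentrations; endpoints were interpolated linearly between bracketing concentrations, or set to the highest concentration if not reached. The concentration for full growth arrest is given as TGI.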

What was measured:
Assay in all cases: NCI-60 cell line screen, 48 h
[1] = tested on: HOP-62 NSCLC
[2] = tested on: SW-620 colon
[3] = tested on: MOLT-4 leukemia
[4] = tested on: NCI-H522 lung
[5] = tested on: COLO 205 colon
[6] = tested on: OVCAR-5 ovarian
[7] = tested on: HS 578T breast
[8] = tested on: NCI-H23 lung
[9] = tested on: SF-539 CNS
[10] = tested on: UACC-62 melanoma
[11] = tested on: U251 CNS
[12] = tested on: 786-0 renal

| SMILES | TGI [1] | TGI [2] | TGI [3] | TGI [4] | TGI [5] | TGI [6] | TGI [7] | TGI [8] | TGI [9] | TGI [10] | TGI [11] | TGI [12] |
| --- | --- | --- | --- | --- | --- | --- | --- | --- | --- | --- | --- | --- |
| COC(=O)C1(Cc2ccccc2)Cc2cc3c(cc2C1=O)CCC3 (stereo not given) | > 100 µM | > 100 µM | 43.1 µM | 64.2 µM | 39.5 µM | > 100 µM | > 100 µM | > 100 µM | > 100 µM | > 100 µM | > 100 µM | > 100 µM |
| O=c1c2ccccc2[nH]c(=S)n1-c1ccc(N=Nc2cccc3c(O)cccc23)cc1 | > 100 µM | > 100 µM | > 100 µM | > 100 µM | > 100 µM | > 100 µM | > 100 µM | > 100 µM | > 100 µM | 68 µM | > 100 µM | > 100 µM |
| c1cc(-c2cnc(-c3ccc4c(c3)CCCO4)o2)ccn1 | 30.1 µM |  | 22.2 µM | 23.4 µM | 33.1 µM | 44.5 µM | 42.2 µM | 30.2 µM | 21.8 µM | 31.7 µM | 78.5 µM | 53 µM |
| CC(=O)C(CN1CCCCC1)C(c1ccccc1)c1c(O)c2ccccc2oc1=O (stereo not given) | > 100 µM | > 100 µM | > 100 µM | > 100 µM | > 100 µM | > 100 µM | > 100 µM | > 100 µM | > 100 µM | > 100 µM | > 100 µM | > 100 µM |
| CCOC(=O)c1cc(C2(O)CCN(Cc3ccccc3)C2=O)c(-c2cc(C)no2)[nH]1 (stereo not given) | > 100 µM | > 100 µM | 41.9 µM | 43.3 µM | > 100 µM | > 100 µM | > 100 µM | > 100 µM | > 100 µM | > 100 µM | > 100 µM | > 100 µM |
| Cc1ccc2c(c1C)CC1(Cc3c(ccc4c3CCC4)C1=O)C2=O (stereo not given) |  | > 100 µM | > 100 µM | > 100 µM | > 100 µM | > 100 µM | > 100 µM | > 100 µM | > 100 µM | > 100 µM | > 100 µM | > 100 µM |
| O=C1CC2C=CC(O)C(C1)C2 (stereo not given) | > 100 µM | > 100 µM | > 100 µM | > 100 µM | > 100 µM | > 100 µM | > 100 µM | > 100 µM | > 100 µM | > 100 µM | > 100 µM | > 100 µM |
| CC(C)(C)OC(=O)NCCCCC(NC(=O)OCc1ccccc1)C(N)=O (stereo not given) | > 100 µM | > 100 µM | > 100 µM | > 100 µM | > 100 µM | > 100 µM | > 100 µM | > 100 µM | > 100 µM | > 100 µM | > 100 µM | > 100 µM |
| CCCCN(CC)c1nc(C)nc2c1c(C)c(C)n2-c1c(C)cc(C)cc1C | 32.9 µM | 33.4 µM | 30.1 µM | 25.7 µM | 32.6 µM | 28.8 µM | 38 µM | 28.2 µM | 6.46 µM |  | 23.9 µM | 30.5 µM |
| Cc1cc(-c2nc3ccccc3s2)ccc1NS(=O)(=O)O | > 100 µM | > 100 µM | > 100 µM | > 67.3 µM | > 11.9 µM | > 100 µM | > 59.5 µM | > 100 µM | > 100 µM | > 100 µM | > 100 µM | > 100 µM |
| COc1ncc(C=C(C#N)C#N)c(OC)n1 | > 100 µM | > 100 µM | > 100 µM | 45.4 µM | > 100 µM | > 100 µM | > 100 µM | > 100 µM | > 100 µM | > 100 µM | > 100 µM | 42.4 µM |
| N#C/C(=C\NC(=S)Nc1ccc(S(=O)(=O)Nc2ccccn2)cc1)C(N)=O | > 100 µM | > 100 µM | > 100 µM | > 100 µM | > 100 µM | > 100 µM | > 100 µM | > 100 µM | > 100 µM | > 100 µM | > 100 µM | > 100 µM |
| O=C1CC(c2ccco2)C2(C(=O)NC(=O)NC2=O)C(c2ccco2)C1 (stereo not given) | > 75 µM | > 75 µM | > 75 µM | > 75 µM | > 75 µM | > 75 µM | > 75 µM | > 75 µM | > 75 µM | > 75 µM | > 75 µM | > 75 µM |
| CC(=O)NC1C(OCc2ccccc2)OC(CO)C(O)C1OCC(=O)N[C@@H](C)C(=O)N[C@H](CCC(=O)NCCNCCNc1c2ccccc2nc2cccc([N+](=O)[O-])c12)C(N)=O (stereo not given in full) | > 100 µM | > 100 µM |  | 28.1 µM | > 100 µM | > 100 µM | > 100 µM | 35.3 µM | > 100 µM | 35.2 µM | > 100 µM | 99.4 µM |
| c1ccc(C[P+]2(c3ccccc3)c3ccccc3-c3ccccc32)cc1 | > 100 µM | > 100 µM | > 100 µM | > 100 µM | > 100 µM |  | > 100 µM | > 100 µM | > 100 µM | > 100 µM |  | > 100 µM |
| CC(C)=CCN1CC(C)C(=O)Nc2cc(Cl)ccc21 (stereo not given) | 81.4 µM | 67.9 µM | > 100 µM | 73.3 µM | 41.9 µM | > 100 µM | > 100 µM | 85.5 µM | 43 µM |  | > 100 µM | 39.2 µM |
| Cc1c(Cl)ccc2c(=O)c3cccc(CC(=O)O)c3oc12 | > 100 µM | > 100 µM | > 100 µM | > 100 µM | > 100 µM |  | > 100 µM | > 100 µM | > 100 µM |  | > 100 µM | > 100 µM |
| O=C1CC(C(O)CO)CC(=O)N1 (stereo not given) | > 100 µM | > 100 µM |  | > 100 µM |  | > 100 µM | > 100 µM | > 100 µM | > 100 µM |  | > 100 µM | > 100 µM |
| Cc1ccc(-c2cc(N)n(-c3nc4c([nH]3)c(=O)n(C)c(=O)n4C)n2)cc1 | 16.4 µM |  | > 100 µM | > 100 µM | 21.8 µM | > 100 µM | > 100 µM | 28 µM | 16 µM | 22.7 µM | > 100 µM | 13.6 µM |
